Reference: US20260022126A1, “2-(L,8-DIETHYL-1,3,4,9-TETRAHYDROPYRANO[3,4-B]INDOL-1-YL)-N-(2-(PIPERIDIN-1 YL)ETHYL)ACETAMIDE ETODOLAC DERIVATIVE AS A EUKARYOTIC ELONGATION FACTOR 2 KINASE (EEF2K) INHIBITOR FOR TARGETED CANCER THERAPY” (BAHCESEHIR UNIVERSITESI, priority 2023, published 2026)

Experiments:
eEF2K [1] = molecular target: T1, eEF2K (Homo sapiens, UniProt O00418); assay: Western blot of p-EF2 (Thr56) for eEF2K inhibition in MDA-MB-231 cells; format: cell-based; conditions: for eEF2K inhibition potential: MDA-MB-231 (TNBC) cells, 2.5 to 20 micromolar
T1 sequence (O00418 1-725): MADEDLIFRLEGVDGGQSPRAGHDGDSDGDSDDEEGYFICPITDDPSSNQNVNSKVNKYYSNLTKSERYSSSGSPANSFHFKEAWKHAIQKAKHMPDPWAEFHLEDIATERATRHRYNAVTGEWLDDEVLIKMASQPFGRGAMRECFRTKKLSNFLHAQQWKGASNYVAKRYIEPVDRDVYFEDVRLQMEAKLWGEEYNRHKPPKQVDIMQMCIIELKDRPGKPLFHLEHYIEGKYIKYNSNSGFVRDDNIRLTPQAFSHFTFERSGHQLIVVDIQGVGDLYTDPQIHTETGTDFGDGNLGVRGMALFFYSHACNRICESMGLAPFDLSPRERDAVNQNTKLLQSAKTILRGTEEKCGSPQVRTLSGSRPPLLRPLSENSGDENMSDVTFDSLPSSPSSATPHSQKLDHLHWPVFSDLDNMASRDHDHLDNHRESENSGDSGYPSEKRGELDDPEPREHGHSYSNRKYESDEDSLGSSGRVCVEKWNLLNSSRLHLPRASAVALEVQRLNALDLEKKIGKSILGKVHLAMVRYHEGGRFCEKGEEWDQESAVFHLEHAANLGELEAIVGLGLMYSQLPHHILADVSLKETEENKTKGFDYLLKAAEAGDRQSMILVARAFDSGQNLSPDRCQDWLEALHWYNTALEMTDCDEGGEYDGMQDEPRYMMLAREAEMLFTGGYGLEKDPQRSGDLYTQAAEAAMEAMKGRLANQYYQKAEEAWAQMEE
Procedure: MeOH: distilled water by volume (%) (70:30) was used as the mobile phase for HPLC analysis for the inventive compound and the flow rate was set to 1 mL min^-1. Triple negative breast cancer (TNBC) cell lines (ER-, PR- and HER2-) MDA-MB-231 cells were purchased from the American Type Culture Collection (ATCC) (Manassas, VA, USA). MDA-MB-231 cells were cultured in Dulbecco's modified Eagle's medium (DMEM)/F12 supplemented with 10% FBS (Fetal Bovine Serum) and 100 U mL^-1 penicillin and streptomycin. Specific antibodies (p-EF2 (Thr56) (2331S), eEF2 (2332S), eEF2K (3692S) and GAPDH (5174S)) were purchased from Cell Signaling Technology (CST).
Western blot analysis was carried out according to previously reported studies to evaluate the eEF2K inhibition activity for the synthesized compounds. The synthesized compound was applied to MDA-MB-231 cells in the range of various concentrations from 2.5 to 20 micromolar for 2 h treatment. The expression levels of p-EF2 (Thr56) inhibition and eEF2K activity were determined by using related antibodies such as p-EF2 (Thr56), eEF2 and eEF2K. Glyceraldehyde 3-phosphate dehydrogenase (GAPDH) was used as a loading control.
To determine the effects of the synthesized compounds in inhibiting eEF2K activity in TNBC, MDA-MB-231 cells, we performed western blot analysis at concentrations ranging from 2.5 micromolar to 20 micromolar in a dose-dependent manner. eEF2K inhibition was detected by decreased phosphorylation levels of EF2 (p-EF2-Thr-56), a direct downstream substrate of the enzyme.

cancer cells = conditions: literature; very high doses; cited from earlier work
eEF2K [2] = molecular target: T1, eEF2K; conditions: literature, cited from earlier work
other protein kinases = conditions: literature; cited from earlier work

eEF2K inhibition potential (eEF2K [1]; western blot)	Structure (SMILES)	eEF2K inhibition (in words) (eEF2K [2])	Activity against other kinases (specificity) (other protein kinases)	further results
did not show any inhibition potential	CCc1cccc2c3c([nH]c12)C(CC)(CC(=O)O)OCC3 (racemic) [Etodolac, (R,S)-2-[1,8-diethyl-1,3,4-tetrahydropyrano[3,4-b]indol-1-yl] acetic acid]	–	–	–
–	CCn1c(=O)c2cc(C(N)=O)c(N)nc2n(C2CC2)c1=O [A484954]	–	–	Dose showing inhibition effect in cancer cells (cancer cells): 75 µM
high inhibition potential	CCc1cccc2c3c([nH]c12)C(CC)(CC(=O)NCCN1CCCCC1)OCC3 (stereo not shown) [Inventive compound, 2-(1,8-Diethyl-1,3,4,9-tetrahydropyrano[3,4-b]indol-1-yl)-N-(2-(piperidin-1-yl)ethyl)acetamide]	–	–	phospho-eEF2 (Thr56) inhibition (eEF2K [1]; MDA-MB-231 cells, 2.5 and 5 micromolar, 2 h treatment): highest phospho-eEF2 (Thr56) inhibition; eEF2K inhibition (reduced levels of p-EF2) (eEF2K [1]; MDA-MB-231 cells, 2.5 micromolar, compared to etodolac (EC), western blot): marked inhibition of eEF2K
–	Cc1cc(C=C2C(=O)C=CC2=O)cc(C)c1O [TX1918]	did not show significant eEF2K inhibition	inhibitory activity against five different kinases	Concentration reported to inhibit eEF2K (eEF2K [2]; concentrations as high as): 10 µM
–	CC(=O)c1c(O)c(C)c(O)c(Cc2c(O)c3c(c(C(=O)/C=C/c4ccccc4)c2O)OC(C)(C)C=C3)c1O [rottlerin]	–	inhibits various other protein kinases at concentrations lower than those required for inhibition of eEF2K	–
–	CCCCCCCCCCCCCCCCn1cc[n+](Cc2ccccc2)c1C.[I-] [NH125]	does not inhibit EF2K but rather increases eEF2 phosphorylation	–	–
